This note sets out measurements from patent US20140315933A1, “CHEMICAL COMPOUNDS” (Pfizer Limited, priority 2013, published 2014).

Structures can show the parent of a compound that is named as a salt. Some results are limits rather than exact numbers.

For this experiment, the target named is T1, URAT-1 transporter (Homo sapiens, UniProt Q96S37).
T1 construct: expressed in transfected cells
T1 sequence (Q96S37 with tags, fused parts or gaps): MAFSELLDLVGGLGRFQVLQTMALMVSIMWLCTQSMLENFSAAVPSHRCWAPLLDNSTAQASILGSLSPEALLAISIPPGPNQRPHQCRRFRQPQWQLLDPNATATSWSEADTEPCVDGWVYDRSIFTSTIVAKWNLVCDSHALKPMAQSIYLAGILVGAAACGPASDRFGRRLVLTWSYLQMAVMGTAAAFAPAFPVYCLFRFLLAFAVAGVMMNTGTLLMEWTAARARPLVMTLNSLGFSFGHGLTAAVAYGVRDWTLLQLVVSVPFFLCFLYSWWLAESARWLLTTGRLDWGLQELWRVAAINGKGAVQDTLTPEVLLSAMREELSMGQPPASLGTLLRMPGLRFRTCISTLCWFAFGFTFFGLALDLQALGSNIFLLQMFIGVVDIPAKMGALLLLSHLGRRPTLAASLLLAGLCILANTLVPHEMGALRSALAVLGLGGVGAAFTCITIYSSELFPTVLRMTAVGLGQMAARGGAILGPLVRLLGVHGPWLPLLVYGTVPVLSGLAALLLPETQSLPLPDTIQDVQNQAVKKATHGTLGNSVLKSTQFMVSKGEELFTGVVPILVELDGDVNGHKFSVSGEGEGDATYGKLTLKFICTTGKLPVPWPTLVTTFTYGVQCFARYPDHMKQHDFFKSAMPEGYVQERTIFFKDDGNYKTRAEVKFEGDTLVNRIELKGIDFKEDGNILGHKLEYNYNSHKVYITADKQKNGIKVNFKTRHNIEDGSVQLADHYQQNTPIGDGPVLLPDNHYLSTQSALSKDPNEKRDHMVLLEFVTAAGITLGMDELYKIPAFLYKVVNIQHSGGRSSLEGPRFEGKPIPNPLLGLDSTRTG
Description: URAT-1 inhibitor activity: [14C]-uric acid uptake into CHO-URAT1(L)GFP#8 (CHO#8) cells, scintillation proximity. Type of experiment: cell-based. The source says:
The nucleotide sequence for the long isoform of URAT1 (NM_144585) was C-terminally fused to that of enhanced green fluorescent protein (eGFP) (hereinafter referred to as URAT1(L)GFP). The combined sequence was codon-optimised and custom synthesized. The synthesized sequence was generated in pDONR221 Gateway entry vector (Invitrogen Life Technologies) prior to cloning in pLenti6.3/V5 Gateway destination vector (Invitrogen Life Technologies).
Lentiviral particles were generated according to ViraPower HiPerform expression system procedure (Invitrogen Life Technologies) and used to transduce CHO cells. Blasticidin selection enabled the generation of a stable clonal pool of cells, confirmed by expression of GFP and V5 epitope. The clonal pools were sorted using fluorescence-activated cell sorting (FACS) on the basis of GFP expression with the gating set at the top 50% of expression into single cells which were subsequently expanded to generate clonal lines. […] This cell line was used for all screening activities and is referred to as CHO-URAT1(L)GFP#8 or CHO#8.
The potency of the compounds of formula (I) as inhibitors of the URAT-1 transporter was determined as follows.
CHO#8 cells were cultured in cell line maintenance flasks in medium consisting of Dulbecco's modified Eagle medium (DMEM) with high glucose and sodium pyruvate (4.5 g of glucose per litre, Invitrogen Life Technologies), supplemented with heat-inactivated foetal bovine serum (FBC, 10% v/v), 1×NEAA (non-essential amino acids) and blasticidin (10 μg/ml). Cultures were grown in 175 cm^2 tissue culture flasks in a humidified incubator at approximately 37° C. in approximately 95% air/5% CO2. Near confluent CHO#8 cell cultures were harvested by trypsinisation, re-suspended in culture medium and the process was repeated once or twice weekly to provide sufficient cells for use.
Assay ready flasks were generated by the same method, except the cells were not cultured in blasticidin.
Assay ready frozen cells were generated by freezing 40,000,000 cells in 1 ml of FBS (without blasticidin) containing 10% DMSO per vial. One vial was sufficient for 5 assay plates. Each vial was thawed rapidly to 37° C., washed and re-suspended in pre-warmed culture medium for seeding onto assay plates.
CHO#8 cells were seeded onto Cytostar™ 96-well plates at a density of […]. The cells were cultured for 1 day at approximately 37° C. in a humidified incubator containing approximately 5% CO2 in air. After approximately 24 hours culture, cells were used for uptake experiments.
On the day of assay, culture medium was removed from the wells and the cells were washed once with 50 μL of chloride-containing buffer (136.7 mM NaCl, 5.36 mM KCl, 0.952 mM CaCl2, 0.441 mM KH2PO4, 0.812 mM MgSO4, 5.6 mM D-glucose, 0.383 mM Na2HPO4.2H2O, 10 mM HEPES, pH 7.4 with NaOH). The cells were pre-incubated with another 50 μL of chloride-containing buffer for one hour at approximately 37° C. in a humidified incubator containing approximately 5% CO2 in air.
Assay compound plates were prepared by diluting the compounds of formula (I) with chloride-free buffer (125 mM Na-gluconate, 4.8 mM K-gluconate, 1.3 mM Ca-gluconate, 1.2 mM KH2PO4, 1.2 mM MgSO4, 5.6 mM D-glucose, 25 mM HEPES, pH 7.4 with NaOH) in 100% DMSO to a final concentration of 1% DMSO. [^14C]-Uric Uric acid working stock was made by addition of radiolabeled compound to a final concentration of 120 nM in chloride-free buffer. In all wells, the final assay concentration of solvent (DMSO) was 0.25%; the final assay concentration of [^14C]-uric acid was 30 nM in chloride-free buffer and the final compound of formula (I) concentrations ranged from 0 to 10 μM.
After pre-incubation, cells were washed with 50 μL of chloride-free buffer and another 50 μL of chloride-free buffer was added. […]
`O=S(=O)(Nc1ncc(F)s1)c1ccc(Oc2ccc(Cl)cc2OC(F)(F)F)c(F)c1` [Example 60, 4-[4-chloro-2-(trifluoromethoxy)phenoxy]-3-fluoro-N-(5-fluoro-1,3-thiazol-2-yl)benzenesulfonamide] gave a half-maximal inhibitory concentration (IC50) of more than 8780 nM.

Turning to `O=S(=O)(Nc1ncc(F)s1)c1ccc(Oc2ccc(Cl)cc2C(F)(F)F)c(F)c1` [Example 61, 4-[4-chloro-2-(trifluoromethyl)phenoxy]-3-fluoro-N-(5-fluoro-1,3-thiazol-2-yl)benzenesulfonamide], the IC50 is more than 10000 nM.

Consider `CC(C)c1cccc(Oc2ccc(S(=O)(=O)Nc3ncns3)cc2Cl)c1` [Example 63, 3-chloro-4-[3-(propan-2-yl)phenoxy]-N-(1,2,4-thiadiazol-5-yl)benzenesulfonamide diethylamine salt], for which the IC50 stood at 1440 nM.

Consider `N#Cc1ccc(Oc2ccc(S(=O)(=O)Nc3ncns3)cc2Cl)cc1` [Example 64, 3-chloro-4-(4-cyanophenoxy)-N-(1,2,4-thiadiazol-5-yl)benzenesulfonamide diethylamine salt], for which the IC50 is 8010 nM.

In turn, `O=S(=O)(Nc1ncns1)c1ccc(Oc2cccc(C(F)(F)F)c2F)c(Cl)c1` [Example 65, 3-chloro-4-[2-fluoro-3-(trifluoromethyl)phenoxy]-N-(1,2,4-thiadiazol-5-yl)benzenesulfonamide diethylamine salt] yielded an IC50 of 1490 nM.

Compound `CC(C)c1cccc(Oc2ccc(S(=O)(=O)Nc3nccs3)cc2F)c1` [Example 66, 3-fluoro-4-[3-(propan-2-yl)phenoxy]-N-(1,3-thiazol-2-yl)benzenesulfonamide] had an IC50 of 5810 nM.

For the compound `CC(C)c1cccc(Oc2cc(F)c(S(=O)(=O)Nc3nccs3)cc2F)c1` [Example 67, 2,5-difluoro-4-[3-(propan-2-yl)phenoxy]-N-(1,3-thiazol-2-yl)benzenesulfonamide], the IC50 was more than 7580 nM.

Compound `CC(C)c1cccc(Oc2cc(F)c(S(=O)(=O)Nc3ncc(F)s3)cc2F)c1` [Example 68, 2,5-difluoro-N-(5-fluoro-1,3-thiazol-2-yl)-4-[3-(propan-2-yl)phenoxy]benzenesulfonamide] had a concentration for half-maximal inhibition (IC50) of more than 8470 nM.

In turn, `CC(C)c1cccc(Oc2ccc(S(=O)(=O)Nc3ncc(F)s3)cc2F)c1` [Example 69, 3-fluoro-N-(5-fluoro-1,3-thiazol-2-yl)-4-[3-(propan-2-yl)phenoxy]benzenesulfonamide] came in with an IC50 of more than 6340 nM.

In turn, `O=S(=O)(Nc1nccs1)c1ccc(Oc2ccc(Cl)cc2OC(F)(F)F)c(F)c1` [Example 70, 4-[4-chloro-2-(trifluoromethoxy)phenoxy]-3-fluoro-N-(1,3-thiazol-2-yl)benzenesulfonamide] had an IC50 of more than 10000 nM.

Compound `O=S(=O)(Nc1nccs1)c1ccc(Oc2ccc(Cl)cc2C(F)(F)F)c(F)c1` [Example 71, 4-[4-chloro-2-(trifluoromethyl)phenoxy]-3-fluoro-N-(1,3-thiazol-2-yl)benzenesulfonamide] showed an IC50 of more than 10000 nM.

Compound `CCc1cc(F)ccc1Oc1ccc(S(=O)(=O)Nc2nccs2)c(F)c1` [Example 72, 4-(2-ethyl-4-fluorophenoxy)-2-fluoro-N-(1,3-thiazol-2-yl)benzenesulfonamide] showed an IC50 of more than 10000 nM.

In turn, `CC(C)c1cccc(Oc2ccc(S(=O)(=O)Nc3nccs3)c(F)c2)c1` [Example 73, 2-fluoro-4-[3-(propan-2-yl)phenoxy]-N-(1,3-thiazol-2-yl)benzenesulfonamide] displayed an IC50 of more than 10000 nM.

In the case of `Cc1cc(Oc2ccc(S(=O)(=O)Nc3nccs3)cc2F)ccc1F` [Example 74, 3-fluoro-4-(4-fluoro-3-methylphenoxy)-N-(1,3-thiazol-2-yl)benzenesulfonamide], the IC50 was more than 3440 nM.

Regarding `O=S(=O)(Nc1nccs1)c1ccc(Oc2ccccc2Br)c(F)c1` [Example 75, 4-(2-bromophenoxy)-3-fluoro-N-(1,3-thiazol-2-yl)benzenesulfonamide], the IC50 is more than 10000 nM.

Consider `Cc1nocc1NS(=O)(=O)c1ccc(Oc2ccc(C#N)c(Cl)c2)c(C#N)c1` [Example 76, 4-(3-chloro-4-cyanophenoxy)-3-cyano-N-(3-methyl-1,2-oxazol-4-yl)benzenesulfonamide], for which the IC50 is 93 nM.

Take `CCc1cc(F)ccc1Oc1ccc(S(=O)(=O)Nc2cscn2)cc1I` [Example 77, 4-(2-ethyl-4-fluorophenoxy)-3-iodo-N-(1,3-thiazol-4-yl)benzenesulfonamide]: 160 nM corresponded to half-maximal inhibition (IC50).

In the case of `CCc1cc(F)ccc1Oc1cc(F)c(S(=O)(=O)Nc2cscn2)cc1Br` [Example 78, 5-bromo-4-(2-ethyl-4-fluorophenoxy)-2-fluoro-N-(1,3-thiazol-4-yl)benzenesulfonamide], the half-inhibitory concentration (IC50) amounted to 165 nM.

In the case of `COc1cc(Cl)ccc1Oc1ccc(S(=O)(=O)Nc2cscn2)c(OC)c1` [Example 79, 4-(4-chloro-2-methoxyphenoxy)-2-methoxy-N-(1,3-thiazol-4-yl)benzenesulfonamide diethylamine salt], the IC50 was more than 10000 nM.

The compound `COc1cc(Cl)ccc1Oc1ccc(S(=O)(=O)Nc2nncs2)c(OC)c1` [Example 80, 4-(4-chloro-2-methoxyphenoxy)-2-methoxy-N-(1,3,4-thiadiazol-2-yl)benzenesulfonamide] came in with an IC50 of more than 5780 nM.

`COc1cc(Cl)ccc1Oc1ccc(S(=O)(=O)Nc2cscn2)c(Cl)c1` [Example 81, 2-chloro-4-(4-chloro-2-methoxyphenoxy)-N-(1,3-thiazol-4-yl)benzenesulfonamide diethylamine salt]: it took 3600 nM to reach half-maximal inhibition (IC50).

Compound `COc1cc(Cl)ccc1Oc1ccc(S(=O)(=O)Nc2nncs2)c(Cl)c1` [Example 82, 2-chloro-4-(4-chloro-2-methoxyphenoxy)-N-(1,3,4-thiadiazol-2-yl)benzenesulfonamide diethylamine salt] registered an IC50 of 340 nM.

In turn, `O=S(=O)(Nc1nccs1)c1ccc(Oc2ncncc2Br)c(F)c1` [Example 83, 4-[(5-bromopyrimidin-4-yl)oxy]-3-fluoro-N-(1,3-thiazol-2-yl)benzenesulfonamide] gave an IC50 of 1140 nM. This IC50 lies about 3.4-fold higher than the previous one.

The compound `N#Cc1cc(S(=O)(=O)Nc2ncc(Cl)s2)ccc1Oc1ccccc1F` [Example 84, N-(5-chloro-1,3-thiazol-2-yl)-3-cyano-4-(2-fluorophenoxy)benzenesulfonamide] registered an IC50 of 681 nM.

On to `N#Cc1cc(S(=O)(=O)Nc2ncc(Cl)s2)ccc1Oc1ccccc1Cl` [Example 85, 4-(2-chlorophenoxy)-N-(5-chloro-1,3-thiazol-2-yl)-3-cyanobenzenesulfonamide], for which the IC50 was determined as 845 nM. The IC50 values of the last two compounds are within 1.5-fold of each other.

As to `N#Cc1cc(S(=O)(=O)Nc2ncc(Cl)s2)ccc1Oc1cc(Cl)ccc1Cl` [Example 86, N-(5-chloro-1,3-thiazol-2-yl)-3-cyano-4-(2,5-dichlorophenoxy)benzenesulfonamide], half-maximal inhibition (IC50) required 680 nM.

Regarding `N#Cc1cc(S(=O)(=O)Nc2ncc(Cl)s2)ccc1Oc1ccc(Cl)cc1F` [Example 87, 4-(4-chloro-2-fluorophenoxy)-N-(5-chloro-1,3-thiazol-2-yl)-3-cyanobenzenesulfonamide], the concentration for half-maximal inhibition (IC50) turned out to be 415 nM.

In turn, `N#Cc1cc(S(=O)(=O)Nc2ncc(Cl)s2)ccc1Oc1ccc(C(F)(F)F)cc1` [Example 88, N-(5-chloro-1,3-thiazol-2-yl)-3-cyano-4-[4-(trifluoromethyl)phenoxy]benzenesulfonamide] registered an IC50 of more than 6720 nM.

With `N#Cc1cc(S(=O)(=O)Nc2ncc(Cl)s2)ccc1Oc1cccc(C(F)(F)F)c1` [Example 89, N-(5-chloro-1,3-thiazol-2-yl)-3-cyano-4-[3-(trifluoromethyl)phenoxy]benzenesulfonamide], the IC50 is 2830 nM.
